Data from ChEMBL document CHEMBL1150977, “A quantitative analysis of kinase inhibitor selectivity” (Nat Biotechnol, 2008).

What follows are molecules tested against 5'-AMP-activated protein kinase catalytic subunit alpha-2 (Homo sapiens, UniProt P54646).

SMILES | Kd [µM]
NC(=O)c1ccc(-c2nc(-c3ccc4c(c3)OCO4)c(-c3ccccn3)[nH]2)cc1 [SB-431542] | > 10

What follows are molecules tested against Cyclin-dependent kinase 5 (Homo sapiens, UniProt Q00535).
Chain of Cyclin-dependent kinase 5 (Q00535 whole entry): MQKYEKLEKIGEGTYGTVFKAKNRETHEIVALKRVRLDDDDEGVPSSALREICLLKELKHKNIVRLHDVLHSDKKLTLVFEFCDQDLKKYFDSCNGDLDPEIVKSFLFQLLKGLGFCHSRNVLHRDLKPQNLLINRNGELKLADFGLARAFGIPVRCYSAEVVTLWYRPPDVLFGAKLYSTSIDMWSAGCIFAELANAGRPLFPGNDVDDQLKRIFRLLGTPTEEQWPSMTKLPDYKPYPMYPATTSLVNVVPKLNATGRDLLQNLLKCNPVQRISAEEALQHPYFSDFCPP

SMILES | Kd [µM]
NC(=O)c1ccc(-c2nc(-c3ccc4c(c3)OCO4)c(-c3ccccn3)[nH]2)cc1 [SB-431542] | > 10
CCN1CCN(Cc2ccc(NC(=O)Nc3ccc(Oc4cc(NC)ncn4)cc3)cc2C(F)(F)F)CC1 [AST-487] | 1

The molecules below were run against Dual specificity protein kinase CLK1 (Homo sapiens, UniProt P49759).

SMILES | Kd [µM]
NC(=O)c1ccc(-c2nc(-c3ccc4c(c3)OCO4)c(-c3ccccn3)[nH]2)cc1 [SB-431542] | > 10

These molecules were tested against T1, Dual specificity mitogen-activated protein kinase kinase 6 (Homo sapiens, UniProt P52564).
T1 sequence (P52564 whole entry): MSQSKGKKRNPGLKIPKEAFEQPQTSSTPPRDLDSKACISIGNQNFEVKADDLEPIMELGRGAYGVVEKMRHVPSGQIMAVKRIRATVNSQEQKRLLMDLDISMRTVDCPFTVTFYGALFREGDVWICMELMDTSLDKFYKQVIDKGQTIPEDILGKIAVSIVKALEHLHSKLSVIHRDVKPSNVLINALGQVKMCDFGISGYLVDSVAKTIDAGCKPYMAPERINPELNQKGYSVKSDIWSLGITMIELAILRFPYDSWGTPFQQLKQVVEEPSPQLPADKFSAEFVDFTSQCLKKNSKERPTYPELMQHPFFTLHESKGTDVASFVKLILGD

SMILES | Kd [µM]
NC(=O)c1ccc(-c2nc(-c3ccc4c(c3)OCO4)c(-c3ccccn3)[nH]2)cc1 [SB-431542] | > 10

The molecules below were run against Serine/threonine-protein kinase 16 (Homo sapiens, UniProt O75716).

SMILES | Kd [µM]
NC(=O)c1ccc(-c2nc(-c3ccc4c(c3)OCO4)c(-c3ccccn3)[nH]2)cc1 [SB-431542] | > 10

What follows are molecules tested against Ribosomal protein S6 kinase alpha-2 (Homo sapiens, UniProt Q15349).
Chain of Ribosomal protein S6 kinase alpha-2 (Q15349 whole entry): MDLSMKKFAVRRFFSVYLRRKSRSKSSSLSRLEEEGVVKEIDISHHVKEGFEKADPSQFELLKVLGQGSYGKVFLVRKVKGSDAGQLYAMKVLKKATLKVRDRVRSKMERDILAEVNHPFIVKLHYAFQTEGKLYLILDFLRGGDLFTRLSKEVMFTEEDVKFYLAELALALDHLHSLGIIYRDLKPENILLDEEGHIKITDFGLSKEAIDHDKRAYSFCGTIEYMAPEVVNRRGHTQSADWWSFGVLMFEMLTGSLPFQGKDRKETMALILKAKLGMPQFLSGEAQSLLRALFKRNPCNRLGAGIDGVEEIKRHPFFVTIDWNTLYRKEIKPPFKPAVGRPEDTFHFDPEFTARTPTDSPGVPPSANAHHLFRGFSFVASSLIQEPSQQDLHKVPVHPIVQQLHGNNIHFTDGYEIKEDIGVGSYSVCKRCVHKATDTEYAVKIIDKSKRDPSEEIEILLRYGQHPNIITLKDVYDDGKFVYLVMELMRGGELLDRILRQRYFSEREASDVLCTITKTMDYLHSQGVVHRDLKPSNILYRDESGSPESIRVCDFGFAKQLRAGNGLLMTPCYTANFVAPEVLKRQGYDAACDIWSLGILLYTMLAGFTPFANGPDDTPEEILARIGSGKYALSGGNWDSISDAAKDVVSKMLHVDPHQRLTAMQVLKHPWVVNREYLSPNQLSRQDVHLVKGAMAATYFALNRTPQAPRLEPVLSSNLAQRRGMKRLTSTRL

SMILES | Kd [µM]
Nc1nc(Nc2ccc(S(N)(=O)=O)cc2)nn1C(=O)c1c(F)cccc1F [JNJ-7706621] | 0.41
NC(=O)c1ccc(-c2nc(-c3ccc4c(c3)OCO4)c(-c3ccccn3)[nH]2)cc1 [SB-431542] | > 10

Each molecule was assayed against Serine/threonine-protein kinase PLK3 (Homo sapiens, UniProt Q9H4B4).
Chain of Serine/threonine-protein kinase PLK3 (Q9H4B4 whole entry): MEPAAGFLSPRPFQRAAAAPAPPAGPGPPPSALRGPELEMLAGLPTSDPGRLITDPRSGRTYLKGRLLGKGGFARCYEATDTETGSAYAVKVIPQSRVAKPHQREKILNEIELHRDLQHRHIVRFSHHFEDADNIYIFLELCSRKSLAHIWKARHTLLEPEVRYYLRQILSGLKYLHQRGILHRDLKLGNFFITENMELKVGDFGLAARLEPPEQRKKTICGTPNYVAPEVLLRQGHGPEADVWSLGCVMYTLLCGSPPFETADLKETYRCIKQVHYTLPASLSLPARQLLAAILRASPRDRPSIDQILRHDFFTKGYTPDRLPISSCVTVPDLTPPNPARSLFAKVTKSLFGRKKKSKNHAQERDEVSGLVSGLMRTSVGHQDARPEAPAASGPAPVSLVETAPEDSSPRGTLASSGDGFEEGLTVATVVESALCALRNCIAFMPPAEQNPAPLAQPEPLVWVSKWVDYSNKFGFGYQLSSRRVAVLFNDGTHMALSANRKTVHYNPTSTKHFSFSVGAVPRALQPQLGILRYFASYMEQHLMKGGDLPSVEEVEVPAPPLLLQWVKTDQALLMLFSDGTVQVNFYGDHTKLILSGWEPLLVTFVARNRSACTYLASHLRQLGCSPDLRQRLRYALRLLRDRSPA

SMILES | Kd [µM]
NC(=O)c1ccc(-c2nc(-c3ccc4c(c3)OCO4)c(-c3ccccn3)[nH]2)cc1 [SB-431542] | > 10
CCN1CCN(Cc2ccc(NC(=O)Nc3ccc(Oc4cc(NC)ncn4)cc3)cc2C(F)(F)F)CC1 [AST-487] | > 10

Each molecule was assayed against Focal adhesion kinase 1 (Homo sapiens, UniProt Q05397).

SMILES | Kd [µM]
NC(=O)c1ccc(-c2nc(-c3ccc4c(c3)OCO4)c(-c3ccccn3)[nH]2)cc1 [SB-431542] | > 10

Each molecule was assayed against T2, cAMP-dependent protein kinase catalytic subunit PRKX (Homo sapiens, UniProt P51817).
T2 sequence (P51817 whole entry): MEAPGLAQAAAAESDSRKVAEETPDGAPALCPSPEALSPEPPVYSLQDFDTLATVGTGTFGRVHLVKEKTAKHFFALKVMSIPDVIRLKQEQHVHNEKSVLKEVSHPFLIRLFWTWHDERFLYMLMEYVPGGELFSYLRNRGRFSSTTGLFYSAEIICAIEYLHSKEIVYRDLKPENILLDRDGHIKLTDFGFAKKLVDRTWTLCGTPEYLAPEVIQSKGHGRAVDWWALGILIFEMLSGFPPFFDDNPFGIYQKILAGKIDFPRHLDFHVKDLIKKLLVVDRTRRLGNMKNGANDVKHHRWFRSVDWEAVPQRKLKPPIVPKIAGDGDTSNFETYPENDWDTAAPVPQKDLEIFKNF

SMILES | Kd [µM]
NC(=O)c1ccc(-c2nc(-c3ccc4c(c3)OCO4)c(-c3ccccn3)[nH]2)cc1 [SB-431542] | > 10
CCN1CCN(Cc2ccc(NC(=O)Nc3ccc(Oc4cc(NC)ncn4)cc3)cc2C(F)(F)F)CC1 [AST-487] | > 10

Each molecule was assayed against Protein-tyrosine kinase 2-beta (Homo sapiens, UniProt Q14289).

SMILES | Kd [µM]
Nc1nc(Nc2ccc(S(N)(=O)=O)cc2)nn1C(=O)c1c(F)cccc1F [JNJ-7706621] | > 10
NC(=O)c1ccc(-c2nc(-c3ccc4c(c3)OCO4)c(-c3ccccn3)[nH]2)cc1 [SB-431542] | > 10

Each molecule was assayed against Insulin receptor-related protein (Homo sapiens, UniProt P14616).
Chain of Insulin receptor-related protein (P14616 27-742 limits assumed): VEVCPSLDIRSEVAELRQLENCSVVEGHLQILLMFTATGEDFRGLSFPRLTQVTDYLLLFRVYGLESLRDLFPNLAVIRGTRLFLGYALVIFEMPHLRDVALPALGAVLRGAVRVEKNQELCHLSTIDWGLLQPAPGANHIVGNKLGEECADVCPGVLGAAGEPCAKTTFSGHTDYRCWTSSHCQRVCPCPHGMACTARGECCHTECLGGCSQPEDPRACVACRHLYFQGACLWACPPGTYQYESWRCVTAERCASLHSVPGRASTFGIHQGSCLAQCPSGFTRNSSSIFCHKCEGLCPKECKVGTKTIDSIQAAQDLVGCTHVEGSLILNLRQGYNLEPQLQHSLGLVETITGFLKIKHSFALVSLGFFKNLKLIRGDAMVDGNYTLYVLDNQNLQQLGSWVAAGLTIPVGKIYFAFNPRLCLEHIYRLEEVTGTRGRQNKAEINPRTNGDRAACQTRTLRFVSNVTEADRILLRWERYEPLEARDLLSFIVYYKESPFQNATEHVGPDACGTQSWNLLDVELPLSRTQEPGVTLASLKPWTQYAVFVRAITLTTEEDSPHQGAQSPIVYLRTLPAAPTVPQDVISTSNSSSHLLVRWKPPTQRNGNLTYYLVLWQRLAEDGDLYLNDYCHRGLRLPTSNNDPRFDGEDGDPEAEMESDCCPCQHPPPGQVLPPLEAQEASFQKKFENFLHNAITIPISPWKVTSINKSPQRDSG
Chain of Insulin receptor-related protein (P14616 747-1297 limits assumed): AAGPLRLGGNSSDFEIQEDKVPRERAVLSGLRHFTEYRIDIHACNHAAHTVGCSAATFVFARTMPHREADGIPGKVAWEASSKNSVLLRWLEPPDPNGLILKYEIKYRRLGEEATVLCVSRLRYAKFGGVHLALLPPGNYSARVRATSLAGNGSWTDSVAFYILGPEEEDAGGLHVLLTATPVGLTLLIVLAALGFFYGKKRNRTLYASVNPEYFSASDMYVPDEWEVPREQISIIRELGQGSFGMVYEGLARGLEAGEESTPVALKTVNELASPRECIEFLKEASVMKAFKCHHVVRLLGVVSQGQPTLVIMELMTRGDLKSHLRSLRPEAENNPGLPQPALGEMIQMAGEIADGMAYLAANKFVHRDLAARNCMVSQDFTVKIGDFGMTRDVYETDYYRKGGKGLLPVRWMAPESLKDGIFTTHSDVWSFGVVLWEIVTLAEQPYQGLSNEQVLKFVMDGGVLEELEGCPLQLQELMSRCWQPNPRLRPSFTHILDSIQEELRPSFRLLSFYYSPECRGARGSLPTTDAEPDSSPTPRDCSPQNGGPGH

SMILES | Kd [µM]
Nc1nc(Nc2ccc(S(N)(=O)=O)cc2)nn1C(=O)c1c(F)cccc1F [JNJ-7706621] | > 10
NC(=O)c1ccc(-c2nc(-c3ccc4c(c3)OCO4)c(-c3ccccn3)[nH]2)cc1 [SB-431542] | > 10

The molecules below were run against T3, Serine/threonine-protein kinase RIO3 (Homo sapiens, UniProt O14730).
T3 sequence (O14730 whole entry): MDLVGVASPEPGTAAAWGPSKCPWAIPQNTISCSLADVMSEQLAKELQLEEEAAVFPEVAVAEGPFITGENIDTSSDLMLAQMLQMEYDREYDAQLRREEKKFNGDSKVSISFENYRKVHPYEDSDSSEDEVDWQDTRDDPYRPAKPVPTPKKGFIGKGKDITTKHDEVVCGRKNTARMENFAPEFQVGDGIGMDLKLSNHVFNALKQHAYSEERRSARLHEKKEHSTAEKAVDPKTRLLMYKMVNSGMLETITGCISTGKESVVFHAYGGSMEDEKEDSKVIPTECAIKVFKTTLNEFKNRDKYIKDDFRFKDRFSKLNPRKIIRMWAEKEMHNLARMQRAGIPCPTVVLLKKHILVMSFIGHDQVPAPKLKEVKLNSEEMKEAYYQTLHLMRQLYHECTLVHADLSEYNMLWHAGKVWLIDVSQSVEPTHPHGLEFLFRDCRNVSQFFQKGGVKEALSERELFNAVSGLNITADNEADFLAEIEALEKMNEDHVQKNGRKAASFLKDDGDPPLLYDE

SMILES | Kd [µM]
Nc1nc(Nc2ccc(S(N)(=O)=O)cc2)nn1C(=O)c1c(F)cccc1F [JNJ-7706621] | 1.2
NC(=O)c1ccc(-c2nc(-c3ccc4c(c3)OCO4)c(-c3ccccn3)[nH]2)cc1 [SB-431542] | > 10

Each molecule was assayed against Serine/threonine-protein kinase 32B (Homo sapiens, UniProt Q9NY57).
Chain of Serine/threonine-protein kinase 32B (Q9NY57 whole entry): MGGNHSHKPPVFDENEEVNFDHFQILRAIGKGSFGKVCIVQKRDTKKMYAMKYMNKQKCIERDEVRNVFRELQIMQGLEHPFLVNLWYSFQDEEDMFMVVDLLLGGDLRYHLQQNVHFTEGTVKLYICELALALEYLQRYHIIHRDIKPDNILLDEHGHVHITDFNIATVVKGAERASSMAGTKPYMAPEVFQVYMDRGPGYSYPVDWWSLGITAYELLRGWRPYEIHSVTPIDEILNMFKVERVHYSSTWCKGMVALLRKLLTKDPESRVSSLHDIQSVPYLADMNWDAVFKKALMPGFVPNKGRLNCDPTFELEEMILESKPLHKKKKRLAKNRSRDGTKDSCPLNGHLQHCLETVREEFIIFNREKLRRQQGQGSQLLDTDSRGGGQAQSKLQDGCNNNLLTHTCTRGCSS

SMILES | Kd [µM]
Nc1nc(Nc2ccc(S(N)(=O)=O)cc2)nn1C(=O)c1c(F)cccc1F [JNJ-7706621] | > 10
NC(=O)c1ccc(-c2nc(-c3ccc4c(c3)OCO4)c(-c3ccccn3)[nH]2)cc1 [SB-431542] | > 10

The molecules below were run against T4, Serine/threonine-protein kinase Nek5 (Homo sapiens, UniProt Q6P3R8).
T4 sequence (Q6P3R8 whole entry): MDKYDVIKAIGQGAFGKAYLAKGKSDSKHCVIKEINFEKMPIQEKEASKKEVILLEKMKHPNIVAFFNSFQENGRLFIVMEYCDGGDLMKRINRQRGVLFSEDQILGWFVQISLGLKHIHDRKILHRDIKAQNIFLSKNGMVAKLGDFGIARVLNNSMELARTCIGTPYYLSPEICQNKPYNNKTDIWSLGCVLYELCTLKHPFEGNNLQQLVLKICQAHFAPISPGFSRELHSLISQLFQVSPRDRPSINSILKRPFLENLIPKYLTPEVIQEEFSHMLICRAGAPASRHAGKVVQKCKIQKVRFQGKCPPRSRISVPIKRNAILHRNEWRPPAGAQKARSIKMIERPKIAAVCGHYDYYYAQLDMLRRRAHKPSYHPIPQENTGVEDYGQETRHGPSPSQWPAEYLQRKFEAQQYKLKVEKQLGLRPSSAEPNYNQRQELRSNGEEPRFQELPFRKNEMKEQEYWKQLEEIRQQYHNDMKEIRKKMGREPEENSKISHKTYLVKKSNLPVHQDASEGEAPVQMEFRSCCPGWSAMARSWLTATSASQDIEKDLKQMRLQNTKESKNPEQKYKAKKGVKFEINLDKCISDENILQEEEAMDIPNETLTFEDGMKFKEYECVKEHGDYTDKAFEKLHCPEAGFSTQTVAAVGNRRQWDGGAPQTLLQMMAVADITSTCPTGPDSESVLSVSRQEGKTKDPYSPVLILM

SMILES | Kd [µM]
Nc1nc(Nc2ccc(S(N)(=O)=O)cc2)nn1C(=O)c1c(F)cccc1F [JNJ-7706621] | > 10
NC(=O)c1ccc(-c2nc(-c3ccc4c(c3)OCO4)c(-c3ccccn3)[nH]2)cc1 [SB-431542] | > 10

These molecules were tested against RAF proto-oncogene serine/threonine-protein kinase (Homo sapiens, UniProt P04049).
Chain of RAF proto-oncogene serine/threonine-protein kinase (P04049 whole entry): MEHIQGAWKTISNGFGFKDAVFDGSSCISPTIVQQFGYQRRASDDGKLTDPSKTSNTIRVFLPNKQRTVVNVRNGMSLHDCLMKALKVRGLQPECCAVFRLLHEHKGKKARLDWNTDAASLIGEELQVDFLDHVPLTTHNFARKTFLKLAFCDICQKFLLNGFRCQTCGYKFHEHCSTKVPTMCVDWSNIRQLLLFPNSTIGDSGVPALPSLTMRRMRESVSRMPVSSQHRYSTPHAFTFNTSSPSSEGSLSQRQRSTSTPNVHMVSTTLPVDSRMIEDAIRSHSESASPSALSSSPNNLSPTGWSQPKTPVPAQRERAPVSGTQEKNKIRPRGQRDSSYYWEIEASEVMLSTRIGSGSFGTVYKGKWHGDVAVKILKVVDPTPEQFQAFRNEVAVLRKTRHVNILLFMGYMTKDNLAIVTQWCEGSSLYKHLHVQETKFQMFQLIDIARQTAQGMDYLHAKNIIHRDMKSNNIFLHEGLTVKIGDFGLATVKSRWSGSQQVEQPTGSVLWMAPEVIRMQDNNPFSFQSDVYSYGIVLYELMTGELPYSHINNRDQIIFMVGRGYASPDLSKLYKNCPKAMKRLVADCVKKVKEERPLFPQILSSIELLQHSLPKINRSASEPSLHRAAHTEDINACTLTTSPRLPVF

SMILES | Kd [µM]
Nc1nc(Nc2ccc(S(N)(=O)=O)cc2)nn1C(=O)c1c(F)cccc1F [JNJ-7706621] | > 10
NC(=O)c1ccc(-c2nc(-c3ccc4c(c3)OCO4)c(-c3ccccn3)[nH]2)cc1 [SB-431542] | > 10

These molecules were tested against MAP/microtubule affinity-regulating kinase 3 (Homo sapiens, UniProt P27448).

SMILES | Kd [µM]
NC(=O)c1ccc(-c2nc(-c3ccc4c(c3)OCO4)c(-c3ccccn3)[nH]2)cc1 [SB-431542] | > 10

What follows are molecules tested against MAP kinase-interacting serine/threonine-protein kinase 1 (Homo sapiens, UniProt Q9BUB5).
Chain of MAP kinase-interacting serine/threonine-protein kinase 1 (Q9BUB5 whole entry): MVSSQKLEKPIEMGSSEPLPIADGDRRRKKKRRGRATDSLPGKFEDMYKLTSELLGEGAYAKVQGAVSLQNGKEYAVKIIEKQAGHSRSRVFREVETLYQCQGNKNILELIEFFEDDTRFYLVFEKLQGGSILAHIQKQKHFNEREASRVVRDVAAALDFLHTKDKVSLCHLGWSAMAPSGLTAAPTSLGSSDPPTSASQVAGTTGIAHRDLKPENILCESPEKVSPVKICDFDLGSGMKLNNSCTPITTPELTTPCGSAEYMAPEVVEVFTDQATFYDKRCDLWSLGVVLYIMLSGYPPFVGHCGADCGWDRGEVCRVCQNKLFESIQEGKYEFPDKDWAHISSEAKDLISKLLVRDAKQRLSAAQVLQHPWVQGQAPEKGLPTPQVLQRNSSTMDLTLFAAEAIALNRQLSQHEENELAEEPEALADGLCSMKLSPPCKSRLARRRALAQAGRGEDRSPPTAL

SMILES | Kd [µM]
Nc1nc(Nc2ccc(S(N)(=O)=O)cc2)nn1C(=O)c1c(F)cccc1F [JNJ-7706621] | > 10
NC(=O)c1ccc(-c2nc(-c3ccc4c(c3)OCO4)c(-c3ccccn3)[nH]2)cc1 [SB-431542] | > 10

The molecules below were run against Serine/threonine-protein kinase 26 (Homo sapiens, UniProt Q9P289).
Chain of Serine/threonine-protein kinase 26 (Q9P289 whole entry): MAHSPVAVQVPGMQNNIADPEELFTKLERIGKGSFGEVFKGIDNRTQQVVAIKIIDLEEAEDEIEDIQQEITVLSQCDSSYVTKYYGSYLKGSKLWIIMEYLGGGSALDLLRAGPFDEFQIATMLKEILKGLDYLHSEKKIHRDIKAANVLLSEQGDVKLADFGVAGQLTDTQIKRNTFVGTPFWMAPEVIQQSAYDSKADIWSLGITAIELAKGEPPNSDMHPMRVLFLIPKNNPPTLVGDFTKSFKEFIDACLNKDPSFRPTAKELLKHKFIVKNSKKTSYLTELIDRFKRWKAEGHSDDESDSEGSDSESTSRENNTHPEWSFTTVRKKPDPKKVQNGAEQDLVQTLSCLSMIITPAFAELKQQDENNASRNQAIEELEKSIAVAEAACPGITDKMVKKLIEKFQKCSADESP

SMILES | Kd [µM]
NC(=O)c1ccc(-c2nc(-c3ccc4c(c3)OCO4)c(-c3ccccn3)[nH]2)cc1 [SB-431542] | > 10
